In patent publication US4863902A, “Treatment of cancer” (Wakunaga Seiyaku Kabushiki Kaisha, priority 1985, dated 1989):

Tests used:
[1] = test system: Colon adenocarcinoma 26 (mouse colon adenocarcinoma); test: Tumor weight of transplanted Colon adenocarcinoma 26 in BALB/c mice; assay type: in vivo; conditions: Table 5, 5-FU 150 mg/Kg, hEGF-II 100 μg/Kg subcutaneous, average ± standard error of 6-12 mice
Protocol: After BALB/c mice were preliminarily fed in a thermostat (23°±0.5° C.), humidistat (60±5%) room for 1 week, those which appear to be healthy weighing 18-20 g were provided for the present experiment in 6-12 mice per 1 group.
Colon adenocarcinoma 26 (mouse colon adenocarcinoma) was minced into pieces and about 0.1 to 0.2 ml thereof was transplanted subcutaneously on the right side of mouse abdomen by a cell transplanting needle (trocker). Six days after transplantation, the size of tumor, namely longer diameter (a mm) and shorter diameter (b mm) of tumor were measured and the tumor weight was calculated according to the formula shown below [Instruction 14 (NCI) 1980].
(§1) Tumor weight (mg)=ab^2 /2
Before carrying out experiments, tumor weights were measured immediately before administration of the compounds and the mice were grouped into 3 groups by use of random numbers so that there may be no difference in average value of the tumor weights on initiation of experiments between the respective groups to make even the average values of tumor weights of the respective groups, and thereafter the compounds were administered to the respective groups.
In this FIGURE, the axis of abscissa indicates the experimental days with the day of compound administration being the day 1, and the axis of ordinate indicates tumor cell growth ratio which is the ratio of the tumor weight after elapse of the respective days relative to the tumor weight on the day 1 as being 100%.

[2] = test system: Colon adenocarcinoma 38 (mouse colon adenocarcinoma); test: Tumor weight of transplanted Colon adenocarcinoma 38 in C57BL/6 mice; assay type: in vivo; conditions: for Tumor weight (day 1 = 100): 5-FU 150 mg/Kg
Protocol: Colon adenocarcinoma 38 (mouse colon adenocarcinoma) was minced into pieces and about 0.1 to 0.2 ml thereof was transplanted subcutaneously on the right side of mouse abdomen by a cell transplanting needle (trocker). Eleven days after transplantation, the size of tumor, namely longer diameter (a mm) and shorter diameter (b mm) of tumor were measured and the tumor weight was calculated according to the formula shown below [Instruction 14 (NCI) 1980].
as §1
In the Table, days indicate the experimental days with the day of compound administration being as the day 1, and the tumor weight immediately before administration of compound of day 1 is made 100. The respective values show the average value ± standard error of case numbers of 10 to 20, in the Table, the marks of (*), * and *** indicate the statistical significance difference of the combined administration group relative to the 5-FU single administration group (the definition of P is as defined above).

[3] = test system: P388/5-FU (mouse leukemia resistant to 5-FU); test: Tumor weight of solid tumor of 5-FU resistant mouse leukemia in CDF1 mice; assay type: in vivo; conditions: 5-FU 150 mg/Kg
Source text: CDF1 strain male mice were employed. The feeding conditions, etc., were the same as in Experimental Example 1.
Of P388 (mouse leukemia), the strain having chemical resistance to 5-FU (P388/5-FU) was previously grown in the abdomen of CDF1 mouse. Eight days after transplantation into the abdomen, ascites (containing tumor cells) were collected, diluted with a liquid medium and transplanted subcutaneously at the axilla of mouse in 3×10^6 cells per mouse. Eight days after transplantation, the size of tumor was measured according to the same method as in Example 1 (Colon 26) and the tumor weight was calculated.
The grouping operation of mouse on initiation of experiments was conducted in the same manner as in Experimental Example 1. As for administration of compounds, the same procedure as in Experimental Example 1 was used. However, the administration was effected twice on the day 1 and the day 3.

[4] = test system: mouse ovarian tumor M5076; test: Tumor weight of solid tumor of mouse ovarian tumor in BDF1 mice; assay type: in vivo; conditions: Table 10, 5-FU 150 mg/Kg, hEGF, [Leu^21 ]-hEGF or hEGF-II 100 μg/Kg subcutaneous, average ± standard error
Protocol: BDF1 male mice were employed. The feeding conditions were the same as in Experimental Example 1.
Mouse ovarian tumor M5076 was transplanted subcutaneously at the axialla of mouse in 1-2×10^6 cells per mouse. 12 days after transplantation, the size of tumor was measured according to the same method as in Experimental Example 1 (Colon 26) and the tumor weight was calculated.
The grouping operation on initiation of Experiments was conducted in the same manner as in Experimental Example 1. The compounds were administered in the same manner as in Experimental Example 9.
The experiment was carried out in the samme manner as in Experimental Examples 1, 7 and as in Experimental Example 17 for others.

[5] = Body weight (minus tumor weight) of Colon 26 bearing mice; assay type: in vivo, mouse; conditions: Experimental Example 5; 150 mg/Kg 5-FU, 100 μg/Kg hEGF subcutaneous
Protocol: That is, in Experimental Example 1, with the value of the body weight of the experimental animal immediately before administration of the drug from which the tumor weight is detracted as being 100, the ratio of the value of the total body weight of the experimental animal from which the tumor weight is detracted on the respective days after administration of the drug relative to this weight was calculated to obtain the results shown in FIG. 4. The symbols in the Figure are the same as in Experimental Example 1.

For O=c1[nH]cc(F)c(=O)[nH]1 [5-FU, 5-fluorouracil], which “Tumor weight (day 1 = 100)” value ([1]; day 2) is on record?
The value was 121.1 ± 9.6.

And the “Tumor weight (day 1 = 100)” value ([1]; day 3)?
The value was 120.4 ± 7.1.

And the “Tumor weight (day 1 = 100)” value ([1]; day 4)?
Its value is 124.0 ± 9.6.

What about the “Tumor weight (day 1 = 100)” value ([1]; day 5) of the same compound?
The value was 122.5 ± 10.7.

And the “Tumor weight (day 1 = 100)” value ([1]; day 6)?
The value was 129.7 ± 11.5.

And the “Tumor weight (day 1 = 100)” value ([1]; day 7)?
Its value is 156.8 ± 14.1.

What about the “Tumor weight (day 1 = 100)” value ([2]; Table 1, day 2, hEGF 100 μg/Kg subcutaneous on day 1, average ± standard error) of the same compound?
Its value is 106.3 ± 31.8.

What about the “Tumor weight (day 1 = 100)” value ([2]; Table 1, day 4, hEGF 100 μg/Kg subcutaneous on day 1, average ± standard error) of the same compound?
The value was 84.5 ± 7.0.

And the “Tumor weight (day 1 = 100)” value ([2]; Table 1, day 5, hEGF 100 μg/Kg subcutaneous on day 1, average ± standard error)?
The value was 75.4 ± 10.3.

What about the “Tumor weight (day 1 = 100)” value ([2]; Table 1, day 6, hEGF 100 μg/Kg subcutaneous on day 1, average ± standard error) of the same compound?
Its value is 86.2 ± 9.5.

What about the “Tumor weight (day 1 = 100)” value ([2]; Table 1, day 7, hEGF 100 μg/Kg subcutaneous on day 1, average ± standard error) of the same compound?
Its value is 121.1 ± 13.0.

And the “Tumor weight (day 1 = 100)” value ([2]; Table 1, day 8, hEGF 100 μg/Kg subcutaneous on day 1, average ± standard error)?
Its value is 147.3 ± 16.0.

And the “Tumor weight (day 1 = 100)” value ([2]; Table 1, day 9, hEGF 100 μg/Kg subcutaneous on day 1, average ± standard error)?
Its value is 210.9 ± 22.9.

And the “Tumor weight (day 1 = 100)” value ([2]; Table 11, day 2, FGF 100 μm/10 ml/Kg subcutaneous, average ± standard error of 6-8 mice)?
Its value is 102.6 ± 6.7.

What about the “Tumor weight (day 1 = 100)” value ([2]; Table 11, day 3, FGF 100 μm/10 ml/Kg subcutaneous, average ± standard error of 6-8 mice) of the same compound?
The value was 99.7 ± 7.2.

What about the “Tumor weight (day 1 = 100)” value ([2]; Table 11, day 4, FGF 100 μm/10 ml/Kg subcutaneous, average ± standard error of 6-8 mice) of the same compound?
The value was 94.9 ± 8.7.

And the “Tumor weight (day 1 = 100)” value ([2]; Table 11, day 5, FGF 100 μm/10 ml/Kg subcutaneous, average ± standard error of 6-8 mice)?
The value was 158.6 ± 22.8.

What about the “Tumor weight ratio(%)” value ([2]; Table 12, day 4 after compound administration, weight before administration = 100, Tegafur 400, 5-FU 150, Mitomycin-C 5, Cisplatin 5 mg/Kg, hIGF-II 50 μg/Kg subcutaneous, average ± standard error of 8-10 mice) of the same compound?
Its value is 84.5 ± 7.0%.

And the “Tumor weight ratio(%)” value ([2]; Table 14, hTGFα 100 μg/10 ml/Kg with 5-FU, Tegafur, Mitomycin-C, Adriamycin or Cisplatin, as described for Table 12)?
Its value is 84.6 ± 7.0%.

And the “Tumor weight ratio(%)” value ([2]; Table 15, day 4 after compound administration, hTGFβ and hEGF 100 μg/Kg with each compound having antitumor action)?
The value was 103.3 ± 15.4%.

And the “Tumor weight % (average value ± standard error)” value ([2]; Table 20, 4 days after administration of 5-FU, 5-FU single subcutaneous)?
The value was 93.9 ± 6.7%.

What about the “Tumor weight (day 1 = 100)” value ([3]; Table 2, day 2, hEGF 100 μg/Kg subcutaneous on day 1 and day 3, average ± standard error of 9 mice) of the same compound?
Its value is 126.2 ± 5.5.

What about the “Tumor weight (day 1 = 100)” value ([3]; Table 2, day 3, hEGF 100 μg/Kg subcutaneous on day 1 and day 3, average ± standard error of 9 mice) of the same compound?
Its value is 232.7 ± 15.9.

And the “Tumor weight (day 1 = 100)” value ([3]; Table 2, day 4, hEGF 100 μg/Kg subcutaneous on day 1 and day 3, average ± standard error of 9 mice)?
Its value is 280.0 ± 31.7.

And the “Tumor weight (day 1 = 100)” value ([3]; Table 3, day 2, [Leu^21 ]-hEGF or hEGF-II 100 μg/Kg subcutaneous on day 1 and day 3, average ± standard error)?
The value was 121.2 ± 10.5.

And the “Tumor weight (day 1 = 100)” value ([3]; Table 3, day 3, [Leu^21 ]-hEGF or hEGF-II 100 μg/Kg subcutaneous on day 1 and day 3, average ± standard error)?
The value was 232.7 ± 15.9.

What about the “Tumor weight (day 1 = 100)” value ([3]; Table 3, day 4, [Leu^21 ]-hEGF or hEGF-II 100 μg/Kg subcutaneous on day 1 and day 3, average ± standard error) of the same compound?
Its value is 280.0 ± 31.7.

And the “Tumor weight (day 1 = 100)” value ([4]; day 2)?
Its value is 114.7 ± 7.5.

What about the “Tumor weight (day 1 = 100)” value ([4]; day 3) of the same compound?
The value was 115.2 ± 8.3.

What about the “Tumor weight (day 1 = 100)” value ([4]; day 4) of the same compound?
The value was 134.6 ± 8.9.

What about the “Tumor weight (day 1 = 100)” value ([4]; day 5) of the same compound?
The value was 187.3 ± 19.3.

What about the “Tumor weight (day 1 = 100)” value ([4]; day 6) of the same compound?
The value was 230.1 ± 29.4.

What about the “body weight reduction inhibiting effect (body weight minus tumor weight, FIG. 4)” value [5] of the same compound?
The value was “no inhibiting effect of weight reduction could be recognized”.
